# Assay results reported in ChEMBL document CHEMBL2040824, “The impact of ionization States of matrix metalloproteinase inhibitors on docking-based inhibitor design” (ACS Med Chem Lett, 2011).
# The source made the active and inactive calls. No cut-off for these calls is given here.
# Test system: SVR
# Assay: Antiproliferative activity against mouse SVR cells at 20 ug/ml after 48 hrs by Coulter counting method
# Type: functional, cell-based
row,Structure (SMILES),Activity
1,COc1cc(/C=C/C(=O)CC(=O)/C=C/c2ccc(O)c(OC)c2)ccc1O,Active
2,CN(C)c1ccc(/C=C/C(=O)c2ccco2)cc1,Active
3,Brc1ccc(/C=N/Nc2nc(-c3ccccc3)cc(-c3ccccc3)n2)cc1,Active
4,Cc1cc(C)n(-c2nc(-c3ccccc3)cc(-c3ccccc3)n2)n1,Active
5,Cc1cccc(-c2nnc(-c3cccc(NC(=O)c4ccco4)c3)o2)c1,Active

# Biological target: Matrix metalloproteinase-9 (Homo sapiens, UniProt P14780)
# Assay: Inhibition of MMP9
# Chain of Matrix metalloproteinase-9 (P14780 whole entry): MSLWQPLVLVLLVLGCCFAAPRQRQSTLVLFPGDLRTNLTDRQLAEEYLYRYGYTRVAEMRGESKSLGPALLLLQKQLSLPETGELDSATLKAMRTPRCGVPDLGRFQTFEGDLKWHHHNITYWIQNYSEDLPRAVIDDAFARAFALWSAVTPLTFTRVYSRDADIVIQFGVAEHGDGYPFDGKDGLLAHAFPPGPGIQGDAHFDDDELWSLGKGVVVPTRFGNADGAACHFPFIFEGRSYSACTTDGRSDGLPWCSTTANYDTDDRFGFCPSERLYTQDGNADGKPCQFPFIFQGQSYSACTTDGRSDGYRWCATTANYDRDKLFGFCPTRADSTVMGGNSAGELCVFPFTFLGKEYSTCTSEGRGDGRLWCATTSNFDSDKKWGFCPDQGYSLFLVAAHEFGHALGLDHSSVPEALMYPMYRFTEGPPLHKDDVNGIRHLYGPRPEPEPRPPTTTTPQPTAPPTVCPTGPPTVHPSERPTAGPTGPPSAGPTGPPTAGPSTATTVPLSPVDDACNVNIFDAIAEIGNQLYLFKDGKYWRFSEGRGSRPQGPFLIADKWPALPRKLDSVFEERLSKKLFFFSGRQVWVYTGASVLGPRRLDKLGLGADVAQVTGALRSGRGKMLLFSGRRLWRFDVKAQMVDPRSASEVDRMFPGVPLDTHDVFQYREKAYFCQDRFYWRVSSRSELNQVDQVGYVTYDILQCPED
row,Structure (SMILES),IC50
1,C[C@@H]1OC(C)(C)O[C@H]1C(CS(=O)(=O)c1ccc(Oc2ccc(OC(F)(F)F)cc2)cc1)N(O)C=O (some centres not stated),1.1 nM
2,O=CN(O)C(CS(=O)(=O)c1ccc(Oc2ccc(OC(F)(F)F)cc2)cc1)C(CO)CO (configuration not stated),0.49 nM
3,CC1(C)NC(=O)N(CC(CS(=O)(=O)c2ccc(-c3ccc(OC(F)(F)F)cc3)cc2)N(O)C=O)C1=O (configuration not stated),0.34 nM
4,CC1(C)C[C@@H](C(CS(=O)(=O)c2ccc(Oc3ccc(OC(F)(F)F)cc3)cc2)N(O)C=O)N(S(C)(=O)=O)C1 (some centres not stated),2 nM
5,CCC1(CC)OC[C@H](C(CS(=O)(=O)c2ccc(Oc3ccc(OC(F)(F)F)cc3)cc2)N(O)C=O)O1 (some centres not stated),1.1 nM
6,CC1(C)OC[C@H](C(CS(=O)(=O)c2ccc(Oc3ccc(OC(F)(F)F)cc3)cc2)N(O)C=O)O1 (some centres not stated),0.5 nM
7,CC1(C)NC(=O)N(CC(CS(=O)(=O)c2ccc(Oc3ccc(Cl)cc3)cc2)N(O)C=O)C1=O (configuration not stated),37 nM
